Test results from ChEMBL document CHEMBL4251577, “Synthesis and antiproliferative activity of pyrrolo[2,3-b]pyridine derivatives bearing the 1,8-naphthyridin-2-one moiety” (Eur J Med Chem, 2018).
pIC50: −log10 of the molar value.

What was measured:
A549 [1] = assay: cells; settings: Homo sapiens, A549, 72 h
Description: Antiproliferative activity against human A549 cells after 72 hrs by MTT assay

HT-29 [2] = assay: cells; settings: Homo sapiens, HT-29, 72 h
NCI-H460 [3] = assay: Antiproliferative activity against human NCI-H460 cells after 72 hrs by MTT assay; format: functional, cell-based; settings: NCI-H460, 72 h
U-87 MG = assay: Antiproliferative activity against human U87MG cells after 72 hrs by MTT assay; format: functional, cell-based, U-87MG ATCC
[4] = target: Platelet-derived growth factor receptor beta (Homo sapiens, UniProt P09619); assay: Inhibition of PDGFRbeta (unknown origin) using poly(Glu, Tyr) 4:1 as substrate after 30 mins by HTRF assay
Chain of Platelet-derived growth factor receptor beta (P09619 whole entry): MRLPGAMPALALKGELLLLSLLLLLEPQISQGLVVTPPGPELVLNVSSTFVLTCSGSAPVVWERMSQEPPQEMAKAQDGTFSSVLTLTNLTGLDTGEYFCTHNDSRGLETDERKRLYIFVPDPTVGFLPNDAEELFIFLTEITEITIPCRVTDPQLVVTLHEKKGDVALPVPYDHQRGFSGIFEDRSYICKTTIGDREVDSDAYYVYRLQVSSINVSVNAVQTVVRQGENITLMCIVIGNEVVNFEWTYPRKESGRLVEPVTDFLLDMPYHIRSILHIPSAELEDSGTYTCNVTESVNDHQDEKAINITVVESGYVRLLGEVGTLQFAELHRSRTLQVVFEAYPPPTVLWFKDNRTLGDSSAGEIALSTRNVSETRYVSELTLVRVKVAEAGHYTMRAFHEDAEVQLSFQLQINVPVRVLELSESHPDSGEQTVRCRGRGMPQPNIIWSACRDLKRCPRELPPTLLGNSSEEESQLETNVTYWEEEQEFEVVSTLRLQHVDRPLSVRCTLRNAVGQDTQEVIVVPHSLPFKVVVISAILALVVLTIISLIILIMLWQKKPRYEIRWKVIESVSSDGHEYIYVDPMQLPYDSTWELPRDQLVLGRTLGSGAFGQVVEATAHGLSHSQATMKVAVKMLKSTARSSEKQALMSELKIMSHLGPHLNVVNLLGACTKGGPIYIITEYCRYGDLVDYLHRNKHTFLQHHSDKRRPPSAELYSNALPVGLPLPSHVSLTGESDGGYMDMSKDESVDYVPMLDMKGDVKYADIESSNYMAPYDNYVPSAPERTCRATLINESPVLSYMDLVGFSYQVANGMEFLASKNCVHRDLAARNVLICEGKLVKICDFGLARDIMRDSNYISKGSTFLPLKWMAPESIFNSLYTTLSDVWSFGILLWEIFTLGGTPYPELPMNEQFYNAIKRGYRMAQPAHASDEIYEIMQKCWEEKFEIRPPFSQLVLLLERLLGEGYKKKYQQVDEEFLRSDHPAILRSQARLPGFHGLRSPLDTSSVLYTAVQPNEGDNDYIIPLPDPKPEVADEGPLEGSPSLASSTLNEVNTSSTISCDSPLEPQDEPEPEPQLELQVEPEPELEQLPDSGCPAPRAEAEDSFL

NCI-H460 [5] = assay: Potency index, ratio of foretinib IC50 to compound IC50 for antiproliferative activity against human NCI-H460 cells; format: functional
[6] = target: Mast/stem cell growth factor receptor Kit (Homo sapiens, UniProt P10721); assay: Inhibition of cKIT (unknown origin) using poly(Glu, Tyr) 4:1 as substrate after 30 mins by HTRF assay
[7] = target: Vascular endothelial growth factor receptor 2 (Homo sapiens, UniProt P35968); assay: Inhibition of VEGFR2 (unknown origin) using poly(Glu, Tyr) 4:1 as substrate after 30 mins by HTRF assay
Chain of Vascular endothelial growth factor receptor 2 (P35968 whole entry): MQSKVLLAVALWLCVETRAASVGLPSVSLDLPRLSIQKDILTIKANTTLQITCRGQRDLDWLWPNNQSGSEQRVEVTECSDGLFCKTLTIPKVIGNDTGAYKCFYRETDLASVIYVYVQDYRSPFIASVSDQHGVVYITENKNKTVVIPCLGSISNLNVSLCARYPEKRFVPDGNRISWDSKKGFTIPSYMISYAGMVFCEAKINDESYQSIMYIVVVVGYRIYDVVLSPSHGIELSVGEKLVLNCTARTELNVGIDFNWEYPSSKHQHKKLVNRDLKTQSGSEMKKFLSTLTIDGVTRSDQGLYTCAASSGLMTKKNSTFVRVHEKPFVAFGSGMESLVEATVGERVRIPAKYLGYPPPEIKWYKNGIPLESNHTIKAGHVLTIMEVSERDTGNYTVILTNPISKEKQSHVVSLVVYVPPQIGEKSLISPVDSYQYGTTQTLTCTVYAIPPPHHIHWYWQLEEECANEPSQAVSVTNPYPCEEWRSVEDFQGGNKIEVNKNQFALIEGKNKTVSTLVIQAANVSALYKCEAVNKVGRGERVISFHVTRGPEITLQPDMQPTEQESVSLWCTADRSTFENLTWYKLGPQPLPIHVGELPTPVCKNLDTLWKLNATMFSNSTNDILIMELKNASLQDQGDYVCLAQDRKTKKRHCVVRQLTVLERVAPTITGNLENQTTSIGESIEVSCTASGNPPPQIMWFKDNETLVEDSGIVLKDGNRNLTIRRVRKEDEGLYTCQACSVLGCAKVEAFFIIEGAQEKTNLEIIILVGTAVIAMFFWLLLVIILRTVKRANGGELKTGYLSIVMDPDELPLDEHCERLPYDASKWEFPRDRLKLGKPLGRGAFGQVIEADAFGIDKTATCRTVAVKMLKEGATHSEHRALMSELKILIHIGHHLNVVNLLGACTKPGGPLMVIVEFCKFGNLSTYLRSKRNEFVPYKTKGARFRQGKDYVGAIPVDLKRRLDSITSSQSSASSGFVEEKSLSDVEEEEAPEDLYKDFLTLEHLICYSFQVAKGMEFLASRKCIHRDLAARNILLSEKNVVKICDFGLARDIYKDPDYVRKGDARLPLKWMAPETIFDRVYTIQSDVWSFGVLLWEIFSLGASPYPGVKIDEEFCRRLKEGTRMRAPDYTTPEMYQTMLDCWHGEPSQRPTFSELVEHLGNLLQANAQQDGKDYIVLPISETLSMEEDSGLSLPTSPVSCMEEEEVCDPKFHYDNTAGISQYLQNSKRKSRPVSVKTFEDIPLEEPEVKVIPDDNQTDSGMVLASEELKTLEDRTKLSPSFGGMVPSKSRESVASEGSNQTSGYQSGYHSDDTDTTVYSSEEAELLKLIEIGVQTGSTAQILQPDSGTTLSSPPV

[8] = target: T1, Receptor-type tyrosine-protein kinase FLT3 (Homo sapiens, UniProt P36888); assay: Inhibition of Flt-3 (unknown origin) using poly(Glu, Tyr) 4:1 as substrate after 30 mins by HTRF assay
T1 sequence (P36888 whole entry): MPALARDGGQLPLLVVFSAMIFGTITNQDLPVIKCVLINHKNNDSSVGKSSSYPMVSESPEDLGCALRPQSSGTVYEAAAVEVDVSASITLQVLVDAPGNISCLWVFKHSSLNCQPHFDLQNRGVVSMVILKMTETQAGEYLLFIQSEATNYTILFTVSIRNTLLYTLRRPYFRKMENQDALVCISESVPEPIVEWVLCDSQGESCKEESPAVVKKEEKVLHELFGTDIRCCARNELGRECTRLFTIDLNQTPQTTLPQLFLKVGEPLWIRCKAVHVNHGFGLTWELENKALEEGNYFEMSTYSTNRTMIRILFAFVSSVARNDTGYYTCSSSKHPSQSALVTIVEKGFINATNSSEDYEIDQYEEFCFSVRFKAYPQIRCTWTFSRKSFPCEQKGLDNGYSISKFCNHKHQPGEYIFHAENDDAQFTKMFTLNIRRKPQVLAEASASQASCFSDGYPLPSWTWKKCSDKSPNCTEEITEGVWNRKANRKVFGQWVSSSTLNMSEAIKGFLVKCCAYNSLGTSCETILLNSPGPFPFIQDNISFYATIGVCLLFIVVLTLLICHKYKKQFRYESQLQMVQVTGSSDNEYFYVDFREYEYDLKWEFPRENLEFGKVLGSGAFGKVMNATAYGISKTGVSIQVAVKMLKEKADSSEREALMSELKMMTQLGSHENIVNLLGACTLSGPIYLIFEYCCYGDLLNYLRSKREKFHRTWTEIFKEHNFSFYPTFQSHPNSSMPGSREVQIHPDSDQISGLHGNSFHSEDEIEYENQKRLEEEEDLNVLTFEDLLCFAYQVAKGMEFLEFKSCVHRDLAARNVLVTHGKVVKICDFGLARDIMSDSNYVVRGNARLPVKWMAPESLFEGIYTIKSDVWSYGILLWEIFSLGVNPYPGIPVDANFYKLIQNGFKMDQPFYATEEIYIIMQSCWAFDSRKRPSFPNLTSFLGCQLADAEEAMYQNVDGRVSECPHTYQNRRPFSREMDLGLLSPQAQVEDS

[9] = target: Epidermal growth factor receptor (Homo sapiens, UniProt P00533); assay: Inhibition of EGFR (unknown origin) using poly(Glu, Tyr) 4:1 as substrate after 30 mins by HTRF assay
Chain of Epidermal growth factor receptor (P00533 whole entry): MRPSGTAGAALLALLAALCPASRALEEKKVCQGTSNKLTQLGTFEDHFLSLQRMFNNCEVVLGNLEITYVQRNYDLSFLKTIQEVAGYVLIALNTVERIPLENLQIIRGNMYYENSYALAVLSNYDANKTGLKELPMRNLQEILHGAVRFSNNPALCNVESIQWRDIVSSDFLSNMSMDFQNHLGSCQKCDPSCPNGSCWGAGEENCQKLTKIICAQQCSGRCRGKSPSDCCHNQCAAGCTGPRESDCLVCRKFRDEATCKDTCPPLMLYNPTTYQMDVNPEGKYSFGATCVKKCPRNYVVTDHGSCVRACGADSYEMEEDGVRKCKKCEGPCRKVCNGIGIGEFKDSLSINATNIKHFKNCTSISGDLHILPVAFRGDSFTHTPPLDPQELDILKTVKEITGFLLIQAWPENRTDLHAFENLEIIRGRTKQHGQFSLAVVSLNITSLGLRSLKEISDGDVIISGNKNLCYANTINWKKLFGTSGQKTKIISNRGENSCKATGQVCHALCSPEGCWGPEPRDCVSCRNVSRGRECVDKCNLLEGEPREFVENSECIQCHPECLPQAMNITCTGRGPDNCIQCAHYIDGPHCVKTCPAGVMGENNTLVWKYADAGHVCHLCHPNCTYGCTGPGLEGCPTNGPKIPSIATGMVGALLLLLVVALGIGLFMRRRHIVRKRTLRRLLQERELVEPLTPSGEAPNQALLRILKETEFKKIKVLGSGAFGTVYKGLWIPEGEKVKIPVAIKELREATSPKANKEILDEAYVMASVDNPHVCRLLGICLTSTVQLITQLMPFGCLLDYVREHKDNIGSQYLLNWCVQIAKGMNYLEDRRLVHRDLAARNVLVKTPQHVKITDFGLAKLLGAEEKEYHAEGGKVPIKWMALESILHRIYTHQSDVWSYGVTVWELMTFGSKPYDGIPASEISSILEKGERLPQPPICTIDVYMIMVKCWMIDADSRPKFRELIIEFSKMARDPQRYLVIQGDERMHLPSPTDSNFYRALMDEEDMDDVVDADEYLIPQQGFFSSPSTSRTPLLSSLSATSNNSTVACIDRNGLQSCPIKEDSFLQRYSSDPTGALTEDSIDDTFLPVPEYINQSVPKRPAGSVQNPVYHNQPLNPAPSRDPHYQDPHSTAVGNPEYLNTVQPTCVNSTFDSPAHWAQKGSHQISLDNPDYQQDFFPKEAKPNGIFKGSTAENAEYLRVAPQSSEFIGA

A549 [10] = assay: Potency index, ratio of foretinib IC50 to compound IC50 for antiproliferative activity against human A549 cells; format: functional
HT-29 [11] = assay: Potency index, ratio of foretinib IC50 to compound IC50 for antiproliferative activity against human HT-29 cells; format: functional
[12] = target: Hepatocyte growth factor receptor (Homo sapiens, UniProt P08581); assay: Inhibition of cMET (unknown origin) using poly(Glu,Tyr) 4:1 substrate after 30 mins by HTFR analysis
Chain of Hepatocyte growth factor receptor (P08581 whole entry): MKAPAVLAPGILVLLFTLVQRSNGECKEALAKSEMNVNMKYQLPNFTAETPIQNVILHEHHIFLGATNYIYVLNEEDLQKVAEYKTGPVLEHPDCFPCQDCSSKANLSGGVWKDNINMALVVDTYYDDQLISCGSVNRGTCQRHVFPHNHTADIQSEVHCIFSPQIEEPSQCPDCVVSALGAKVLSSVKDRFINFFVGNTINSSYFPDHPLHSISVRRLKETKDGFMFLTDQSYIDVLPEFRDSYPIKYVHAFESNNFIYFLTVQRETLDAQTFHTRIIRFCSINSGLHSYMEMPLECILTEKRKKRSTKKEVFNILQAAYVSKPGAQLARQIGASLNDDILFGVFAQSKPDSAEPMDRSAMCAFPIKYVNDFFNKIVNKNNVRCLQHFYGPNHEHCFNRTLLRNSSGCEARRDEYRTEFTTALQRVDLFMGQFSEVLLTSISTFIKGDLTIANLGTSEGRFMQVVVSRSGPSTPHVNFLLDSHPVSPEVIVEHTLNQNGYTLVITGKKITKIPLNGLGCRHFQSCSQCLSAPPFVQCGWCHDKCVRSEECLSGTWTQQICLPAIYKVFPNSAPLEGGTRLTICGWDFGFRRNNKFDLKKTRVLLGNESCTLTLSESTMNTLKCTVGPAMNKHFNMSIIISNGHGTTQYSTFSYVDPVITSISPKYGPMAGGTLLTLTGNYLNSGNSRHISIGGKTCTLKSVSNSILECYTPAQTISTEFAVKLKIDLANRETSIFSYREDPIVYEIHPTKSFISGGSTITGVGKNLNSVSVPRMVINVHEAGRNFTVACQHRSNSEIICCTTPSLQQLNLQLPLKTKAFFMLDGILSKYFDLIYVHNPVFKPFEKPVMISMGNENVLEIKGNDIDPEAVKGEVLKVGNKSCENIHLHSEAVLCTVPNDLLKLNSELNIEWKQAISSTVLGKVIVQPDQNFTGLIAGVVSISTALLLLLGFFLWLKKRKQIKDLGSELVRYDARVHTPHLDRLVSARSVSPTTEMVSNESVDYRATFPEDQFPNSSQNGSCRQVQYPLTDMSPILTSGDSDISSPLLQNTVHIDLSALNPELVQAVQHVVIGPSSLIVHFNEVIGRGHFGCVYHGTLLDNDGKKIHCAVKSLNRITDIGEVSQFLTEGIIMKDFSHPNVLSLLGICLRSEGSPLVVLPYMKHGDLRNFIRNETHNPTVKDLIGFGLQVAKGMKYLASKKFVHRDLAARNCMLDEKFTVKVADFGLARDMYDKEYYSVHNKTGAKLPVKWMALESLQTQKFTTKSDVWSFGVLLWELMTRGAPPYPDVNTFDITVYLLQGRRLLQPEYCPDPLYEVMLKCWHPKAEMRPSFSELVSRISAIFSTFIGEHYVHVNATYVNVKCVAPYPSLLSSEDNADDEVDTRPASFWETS

Structure (SMILES)	pIC50 (A549 [1])	pIC50 (HT-29 [2])	pIC50 (NCI-H460 [3])	pIC50 (U-87 MG)	also measured
O=C(Nc1ccc(Oc2ccnc3[nH]ccc23)cc1)c1cc2cccnc2n(-c2ccc(F)c(Cl)c2)c1=O	6.17	6.25			
Cn1ccc2c(Oc3ccc(NC(=O)c4cc5cccnc5n(-c5ccc(Br)cc5)c4=O)cc3)ccnc21	6.17	6.16			
O=C(Nc1ccc(Oc2ccnc3[nH]ccc23)c(F)c1)c1cc2cccnc2n(-c2ccccc2)c1=O	6.72	6.80	6.74	5.90	
COc1ccc(-n2c(=O)c(C(=O)Nc3ccc(Oc4ccnc5c4ccn5C)c(F)c3)cc3cccnc32)cc1	5.56	5.89			
Cn1ccc2c(Oc3ccc(NC(=O)c4cc5cccnc5n(-c5ccccc5)c4=O)cc3)ccnc21	6.07	6.21	6.25	5.30	
Cn1ccc2c(Oc3ccc(NC(=O)c4cc5cccnc5n(-c5ccc(C(F)(F)F)cc5Cl)c4=O)cc3F)ccnc21	5.45	5.23	5.22	4.99	
O=C(Nc1ccc(Oc2ccnc3[nH]ccc23)cc1)c1cc2cccnc2n(-c2ccc(F)cc2)c1=O	6.68	6.80	6.72	5.87	
COc1ccc(-n2c(=O)c(C(=O)Nc3ccc(Oc4ccnc5[nH]ccc45)c(F)c3)cc3cccnc32)cc1	6.21	6.27			
Cn1ccc2c(Oc3ccc(NC(=O)c4cc5cccnc5n(-c5ccc(F)c(Cl)c5)c4=O)cc3)ccnc21	6.09	5.92	5.92	5.63	
O=C(Nc1ccc(Oc2ccnc3[nH]ccc23)c(F)c1)c1cc2cccnc2n(-c2ccc(Cl)cc2)c1=O	6.96	7.09			
Cn1ccc2c(Oc3ccc(NC(=O)c4cc5cccnc5n(-c5ccc(Cl)cc5)c4=O)cc3F)ccnc21	6.46	6.66			
Cn1ccc2c(Oc3ccc(NC(=O)c4cc5cccnc5n(-c5ccc(Cl)cc5)c4=O)cc3)ccnc21	6.20	6.14			
O=C(Nc1ccc(Oc2ccnc3[nH]ccc23)cc1)c1cc2cccnc2n(-c2ccccc2)c1=O	6.44	6.54	6.42	5.80	
Cn1ccc2c(Oc3ccc(NC(=O)c4cc5cccnc5n(-c5ccc(F)c(Cl)c5)c4=O)cc3F)ccnc21	5.45	5.61			
COc1ccc(-n2c(=O)c(C(=O)Nc3ccc(Oc4ccnc5[nH]ccc45)cc3)cc3cccnc32)cc1	6.03	5.90	6.02	5.63	
Cn1ccc2c(Oc3ccc(NC(=O)c4cc5cccnc5n(-c5ccccc5)c4=O)cc3F)ccnc21	6.37	6.29	6.26	5.44	

Structure (SMILES)	pIC50 (A549 [1])	pIC50 (HT-29 [2])	pIC50 (NCI-H460 [3])	pIC50 (U-87 MG)	also measured
COc1ccc(-n2c(=O)c(C(=O)Nc3ccc(Oc4ccnc5c4ccn5C)cc3)cc3cccnc32)cc1	5.46	5.69	5.72	5.29	
O=C(Nc1ccc(Oc2ccnc3[nH]ccc23)cc1)c1cc2cccnc2n(-c2ccc(C(F)(F)F)cc2Cl)c1=O	5.49	5.67	5.71	5.22	
O=C(Nc1ccc(Oc2ccnc3[nH]ccc23)c(F)c1)c1cc2cccnc2n(-c2ccc(F)c(Cl)c2)c1=O	6.20	6.51	5.98	5.28	
Cn1ccc2c(Oc3ccc(NC(=O)c4cc5cccnc5n(-c5ccc(Br)cc5)c4=O)cc3F)ccnc21	6.41	6.48	6.38	5.59	
O=C(Nc1ccc(Oc2ccnc3[nH]ccc23)cc1)c1cc2cccnc2n(-c2ccc(Cl)cc2)c1=O	6.54	6.55	6.54	5.47	
O=C(Nc1ccc(Oc2ccnc3[nH]ccc23)c(F)c1)c1cc2cccnc2n(-c2ccc(Br)cc2)c1=O	6.68	6.92	6.59	5.82	
O=C(Nc1ccc(Oc2ccnc3[nH]ccc23)cc1)c1cc2cccnc2n(-c2ccc(Br)cc2F)c1=O	5.80	5.63			
Cn1ccc2c(Oc3ccc(NC(=O)c4cc5cccnc5n(-c5ccc(Br)cc5F)c4=O)cc3)ccnc21	5.79	5.59			
O=C(Nc1ccc(Oc2ccnc3[nH]ccc23)c(F)c1)c1cc2cccnc2n(-c2ccc(F)cc2)c1=O	7.21	7.44	7.06	6.21	pIC50 [4]: 8.74; Ratio IC50 (NCI-H460 [5]): 3.2; pIC50 [6]: 6.16; pIC50 [7]: 6.82; pIC50 [8]: 8.94; pIC50 [9]: 6.20; Ratio IC50 (A549 [10]): 5.2; Ratio IC50 (HT-29 [11]): 7.2; pIC50 [12]: 8.72
O=C(Nc1ccc(Oc2ccnc3[nH]ccc23)c(F)c1)c1cc2cccnc2n(-c2ccc(C(F)(F)F)cc2Cl)c1=O	5.99	5.87			
Cn1ccc2c(Oc3ccc(NC(=O)c4cc5cccnc5n(-c5ccc(F)cc5)c4=O)cc3F)ccnc21	6.55	6.80	6.60	5.88	
O=C(Nc1ccc(Oc2ccnc3[nH]ccc23)cc1)c1cc2cccnc2n(-c2ccc(Br)cc2)c1=O	6.55	6.57			
Cn1ccc2c(Oc3ccc(NC(=O)c4cc5cccnc5n(-c5ccc(F)cc5)c4=O)cc3)ccnc21	6.68	6.60	6.59	5.67	
Cn1ccc2c(Oc3ccc(NC(=O)c4cc5cccnc5n(-c5ccc(C(F)(F)F)cc5Cl)c4=O)cc3)ccnc21	5.08	5.22	5.16	4.90	
Cn1ccc2c(Oc3ccc(NC(=O)c4cc5cccnc5n(-c5ccc(Br)cc5F)c4=O)cc3F)ccnc21	5.57	5.48	5.50	5.19	
O=C(Nc1ccc(Oc2ccnc3[nH]ccc23)c(F)c1)c1cc2cccnc2n(-c2ccc(Br)cc2F)c1=O	6.34	6.09			
